For this assay, the target named is Induced myeloid leukemia cell differentiation protein Mcl-1 (Homo sapiens) (UniProt Q07820). The assay is described as follows: blockers of Bid binding to Mcl-1 – biochemical, TR-FRET, dose response (AID 1418). The conditions noted are these: Mcl-1/Bid peptide binding, TR-FRET (europium/Dy647), 2 hr. (Time-resolved FRET reads energy transfer from a long-lived donor to a nearby acceptor.)

Active and inactive are the calls of the source. The rule behind the calls is not given here.

In general, IC50 refers to the concentration that gives 50% inhibition.

Sequence of Induced myeloid leukemia cell differentiation protein Mcl-1 (Homo sapiens) (Q07820 whole entry, looked up): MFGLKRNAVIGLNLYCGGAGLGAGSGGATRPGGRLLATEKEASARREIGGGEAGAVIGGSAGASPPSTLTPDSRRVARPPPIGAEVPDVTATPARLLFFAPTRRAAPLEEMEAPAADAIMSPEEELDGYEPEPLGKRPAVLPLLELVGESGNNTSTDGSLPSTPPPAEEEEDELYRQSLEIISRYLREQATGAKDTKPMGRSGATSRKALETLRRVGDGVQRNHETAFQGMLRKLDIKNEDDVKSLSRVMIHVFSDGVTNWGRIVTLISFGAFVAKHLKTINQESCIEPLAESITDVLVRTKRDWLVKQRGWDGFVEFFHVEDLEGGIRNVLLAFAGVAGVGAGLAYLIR

With `C#CCOCCOCCOCCNc1nc(N2CCN(C(=O)[C@H](Cc3cc4ccccc4[nH]3)n3cc([C@@H](N)C(C)CC)nn3)CC2)nc(N2CCN(C(=O)[C@H](Cc3cc4ccccc4[nH]3)n3cc([C@@H](N)Cc4ccc(O)cc4)nn3)CC2)n1` (stereo partly specified), the IC50 is > 54 µM (inactive). As for `CC(=O)C1=C(C)NC(SCC(N)=O)=C(C#N)C1c1cccnc1` (stereo unspecified), the IC50 was > 54 µM (inactive). The value for `Cc1ccc(CSc2nnc(SCC(=O)N/N=C/c3c[nH]c4ccccc34)s2)cc1` was 0.53 µM; that for `COc1ccc(-c2ccc(C#N)c(SCC(=O)Nc3sc4c(c3C#N)CCC4)n2)cc1OC` was 0.67 µM. For `O=C(O)COc1ccccc1C(Nc1cccnc1)c1cc(Cl)c2cccnc2c1O` (stereo unspecified) the value was 2.52 µM; for `COc1ccc2nc(-n3c(O)c(C4=c5ccccc5=NC4=O)[nH]c3=S)sc2c1`, 1.38 µM; for `Fc1cc2nc(-c3ccncc3)[nH]c2cc1F`, > 54 µM (inactive).

Consider `O=C(CC(C(=O)O)c1c[nH]c2ccccc12)c1ccccc1` (stereo unspecified), for which the IC50 was > 54 µM (inactive). For `O=C(Nc1ccc2c(c1)OCCO2)NC1(C(F)(F)F)Oc2ccccc2O1` the value was > 54 µM (inactive); for `CC1C(=O)CCN(C(C)C)C1C` (stereo unspecified), > 54 µM (inactive); for `COc1cccc2cc(C(=O)Oc3ccc(NC(C)=O)cc3)c(=O)oc12`, > 54 µM (inactive).

With `CNC(=O)CN(C1CCCCC1)S(=O)(=O)c1ccc(OC)c(Cl)c1`, the IC50 is > 54 µM (inactive).

Consider `Cc1cccc(N(CC(=O)NC2CCCC2)C(=O)c2cc3cc4cccc(C)c4nc3s2)c1C`, for which the IC50 was > 54 µM (inactive). Consider `COc1ccc(/C=C2\C(=O)NC(=S)N2C(=O)c2ccc(F)cc2)cc1`, for which the 50% inhibitory concentration (IC50) is 8.97 µM.

Regarding `Cc1cc(=O)c2ccc(C(F)(F)F)cc2[nH]1`, the IC50 is > 54 µM (inactive).

As to `COC(=O)c1ccc(COC(=O)c2ccc(CS(=O)(=O)c3ccc(C)cc3)cc2)cc1`, the IC50 is 1.3 µM. `CCn1c(-c2cccc(Br)c2)n[nH]c1=S`: the IC50 is > 54 µM (inactive). For `CC(Cc1ccccc1)NCC(=O)Nc1cc(N(C)C)nc2ccccc12` (stereo unspecified) the value was > 54 µM (inactive). The value for `COc1cccc(N2CCN(C(=O)NC3CCCCC3)CC2)c1` was > 54 µM (inactive); that for `c1ccc2c(c1)nnn2-c1ncnc2sc3c(c12)CCCC3` was > 54 µM (inactive). The value for `COc1cc(OC)cc(C(=O)N(CCCN2C(=O)c3cccc4cccc(c34)C2=O)c2cccc(OC)c2)c1` was > 54 µM (inactive).

For `COc1cccc(NC(=O)C(=O)N/N=C/c2cc(C)n(-c3ccc(Cl)c(Cl)c3)c2C)c1`, the IC50 was > 54 µM (inactive). The value for `O=[N+]([O-])c1cc(Cl)cc(/C=N\Nc2ccccn2)c1O` was 9.24 µM; that for `COc1ccc(C(=O)N(Cc2ccccc2)Cc2cc3cc4c(cc3[nH]c2=O)OCCO4)cc1` was > 54 µM (inactive); that for `O=C(CN1C(=O)NC2(CCc3ccccc3C2)C1=O)Nc1ccc(F)cc1` (stereo unspecified) was > 54 µM (inactive). The value for `O=C1c2ccccc2C(=O)N1Cc1nc2ccccc2c(=O)n1-c1cccnc1` was > 54 µM (inactive); that for `O=C1N=C2N(CCN3CCCCC3)c3ccccc3N2/C1=C\c1ccc([N+](=O)[O-])o1` was > 54 µM (inactive).

As to `CCOC(=O)c1cc(-c2ccc(/C=C3/C(=O)NC(=O)C(C#N)=C3C)o2)ccc1Cl`, the half-maximal inhibitory concentration (IC50) was 0.79 µM. For `Cc1ccc(-c2cc(-c3ccc4c(c3)OCO4)c(C#N)c(N)n2)o1` the value was 16.4 µM; for `CN(Cc1ccccc1)Cc1nc2c([nH]1)c(=O)[nH]c(=O)n2C`, > 54 µM (inactive); for `O=C(ONc1ccc(N=NC(=O)c2ccccc2O)cc1)c1ccccc1`, “inactive”. For `C=CCn1c(SCc2ccc([N+](=O)[O-])cc2)nnc1C(C)NC(=O)c1ccccc1` (stereo unspecified) the value was > 54 µM (inactive); for `Cc1ccc(S(=O)(=O)N(CC(=O)N/N=C/c2cccc(Cl)c2)c2cccc3cccnc23)cc1`, > 54 µM (inactive); for `O=c1[nH]c(O)c(/C=C2/C=CC(c3cc(Cl)ccc3Cl)=N2)c(=O)[nH]1`, 1.07 µM. For `O=C1C(=Cc2cccn2-c2ccccc2)C(=O)c2ccccc21` the value was 2.58 µM.

On to `CN(CC(=O)Nc1cccc(C#N)c1)Cc1ccc(Cl)cc1`, for which the IC50 is > 54 µM (inactive). As to `Cc1ccc(-c2ccc(/C=C3/NC(=O)NC3=O)o2)cc1[N+](=O)[O-]`, the IC50 result was “inactive”. The value for `NC(=S)n1[nH]c(-c2ccc([N+](=O)[O-])cc2)c(N=Nc2ccccc2[N+](=O)[O-])c1=O` was 3.26 µM; that for `O=C(N/N=C/c1ccc([N+](=O)[O-])o1)c1cc2c(ccc3ccccc32)o1` was 1.71 µM; that for `O=C1Nc2ccc(Br)cc2/C1=C/C(=O)c1ccc2c(c1)OCO2` was 1.93 µM. The value for `O=C(Cc1c(F)cccc1Cl)Nc1ccon1` was > 54 µM (inactive); that for `CSc1nc(C)cc(OCC(=O)n2nc(C)cc2C)n1` was > 54 µM (inactive). For `CCCCOc1ccc(CC2C(=O)N(C)C(=O)N(C)C2=O)cc1` the value was > 54 µM (inactive); for `Nc1ccc(C(=O)N/N=C\c2cc(N=Nc3cccc4ccccc34)ccc2O)cc1`, 12 µM. As to `CC1(C)CC(=O)C2=C(C1)OC(N)=C(C#N)C2c1cccc(OC(=O)c2ccco2)c1` (stereo unspecified), the IC50 was > 54 µM (inactive). The value for `COc1ccc2c(c1)c(=O)oc1cc3oc(C)c(C)c3cc12` was 17 µM; that for `COc1ccc(C(C)=O)cc1COc1ccc(Cl)cc1Cl` was > 54 µM (inactive); that for `Nc1ccccc1Nc1ccccc1` was > 54 µM (inactive). The value for `CCCCN1C(=O)/C(=C/C=C/c2ccco2)C(=O)NC1=S` was 8.35 µM; that for `O=C(O)COc1ccc(/C=N/NC(=O)c2ccc(-c3csc(Nc4ccc(Cl)cc4)n3)cc2)cc1` was 1.43 µM; that for `NC(=O)COc1c(-c2ccccc2)oc2ccccc2c1=O` was > 54 µM (inactive). For `CC(=O)c1ccc(NC(=O)C(C)n2c3ccccc3c3nc(=O)cc(C)n32)cc1` (stereo unspecified), the IC50 was > 54 µM (inactive).

For the molecule `O=C(NCc1cccnc1)c1cc2nc(-c3ccc4c(c3)OCO4)cc(C(F)(F)F)n2n1`, the IC50 is > 54 µM (inactive). For `O=C(CCN1C(=O)/C(=C/c2cccc(Br)c2)SC1=S)NNC(=O)c1cccnc1` the value was 4.52 µM. The value for `CNC(=O)CC1C(=O)N(c2ccc(OC)cc2)C(=S)N1NC(=O)c1cccc(F)c1` (stereo unspecified) was > 54 µM (inactive).

`CC(=O)c1c(N=CN(C)C)nc(C)nc1-c1ccccc1`: the IC50 is > 54 µM (inactive). For `CCc1cc(C(c2ccc(F)cc2)N2CCOCC2)c(NC(=O)c2ccccc2)s1` (stereo unspecified) the value was > 54 µM (inactive); for `FC(F)(F)c1cccc(N/N=C/c2ccccc2)c1`, > 54 µM (inactive). For `CCOC(=O)c1cc2occc2n1CC(=O)NC1CCCCC1C` (stereo unspecified) the value was > 54 µM (inactive). For `O=C(CSCc1ccccc1)NCCCN1CCOCC1` the value was > 54 µM (inactive); for `CNNC(=O)C(=O)NNS(=O)(=O)c1ccccc1`, > 54 µM (inactive). Turning to `COc1cc(OC)cc(C(=O)N[C@H](C(=O)OCC(=O)NC(=O)c2cccn2C)C(C)C)c1`, the IC50 was > 54 µM (inactive). For `CN1CCN2c3ccc(N)cc3CC3(C(=O)NC(=O)NC3=O)C2C1` (stereo unspecified) the value was 0.48 µM; for `O=C(Nc1cccc(Cl)c1)c1cc(N=Nc2ccc([N+](=O)[O-])cc2Cl)ccc1O`, 4.18 µM.

As for `COc1cc(NC(=O)COc2ccccc2)c(OC)cc1NC(C)=O`, the IC50 was > 54 µM (inactive). The value for `Cc1cccc(N=C2NC(=O)/C(=C/C=C/c3ccco3)S2)c1C` was > 54 µM (inactive). The value for `Cc1ccc(C(=O)CN(C(=O)c2ccc(Cl)c(Cl)c2)N2C(=O)C3C4C=CC(C4)C3C2=O)cc1` (stereo unspecified) was > 54 µM (inactive). Take `CSc1ccccc1NC(=O)CNCCCN1CCOCC1`: the IC50 is > 54 µM (inactive). The value for `c1ccc2[nH]c(CN3CCOCC3)nc2c1` was > 54 µM (inactive); that for `CCC(CC)C(=O)Oc1c(Sc2ccccc2[N+](=O)[O-])c(C)nn1C(C)(C)C` was > 54 µM (inactive). For `CSc1nc(SCC(=O)O)c2sc3nc(-c4ccccc4)c4c(c3c2n1)CCC4` the value was 1.53 µM. The value for `O=C(NC(Cc1ccccc1)C(=O)O)c1ccc(S(=O)(=O)N2CCCCC2)cc1` (stereo unspecified) was > 54 µM (inactive); that for `CN1C(=S)N(c2cccnc2)C(=O)/C1=C\c1ccc(N(C)C)cc1` was 9 µM. Regarding `CCO[C@@H]1OC(C(=O)N2CCN(Cc3ccccc3)CC2)=C[C@H](C2CC2)[C@H]1CCCO`, the IC50 was > 54 µM (inactive).

As for `CC(C)(C)c1cc(-c2csc(Nc3ccccc3)[n+]2Cc2ccc(C(=O)O)cc2)cc(C(C)(C)C)c1O`, the IC50 is 0.66 µM. The value for `CC1(C(=O)NNC(=O)C2CCCCC2)CC1(Cl)Cl` (stereo unspecified) was > 54 µM (inactive); that for `CNc1ccc(Br)cc(C(=O)/C=C/c2cccc(Cl)c2Cl)c1=O` was 3.46 µM. For `Cc1ccc(NC(=O)C(=O)NCc2ccc(/C=C(/C#N)C(=O)NCc3cccnc3)o2)cc1C` the value was > 54 µM (inactive). For `O=C(O)c1ccc(NS(=O)(=O)c2cccc3nsnc23)cc1` the value was > 54 µM (inactive); for `CCC1Oc2ccc(C)cc2N(CC(=O)N(Cc2cccnc2)Cc2ccc(C)o2)C1=O` (stereo unspecified), > 54 µM (inactive). In the case of `O=C(CSc1nnc(SCc2ccc(Cl)cc2)s1)N/N=C/c1c[nH]c2ccccc12`, the IC50 was 0.44 µM. The value for `C=CCOc1c(OC)cc(/C=N/Nc2cccc(C(=O)O)c2)c(Br)c1Br` was 18.3 µM; that for `O=C(c1cnn2c(C(F)(F)F)cc(-c3cccs3)nc12)N1CCOCC1` was > 54 µM (inactive). For `Cc1nc(N)sc1-c1csc(Nc2ncccn2)n1` the value was 3.3 µM; for `Nc1cccc(C(=O)OCC(=O)Nc2cccc3c2C(=O)c2ccccc2C3=O)c1`, 2.38 µM.

Regarding `Cc1ccc(C(=O)NNC(=O)CSc2nnc3c(n2)[nH]c2ccc(F)cc23)cc1`, the IC50 is > 54 µM (inactive).

Values taken from PubChem BioAssay AID1418 (Emory University Molecular Libraries Screening Center, 2008).
